The source made the active and inactive calls.
Assays:
Aminopeptidase N = target: T1, Aminopeptidase N (Plasmodium falciparum FcB1/Columbia, UniProt O96935); experiment: P. falciparum M1AAP inhibitors, biochemical, fluorogenic H-Leu-NHMec substrate, 1536-well (AID 1445); design: species or system Plasmodium falciparum 3D7, 3D7
T1 sequence (O96935 whole entry): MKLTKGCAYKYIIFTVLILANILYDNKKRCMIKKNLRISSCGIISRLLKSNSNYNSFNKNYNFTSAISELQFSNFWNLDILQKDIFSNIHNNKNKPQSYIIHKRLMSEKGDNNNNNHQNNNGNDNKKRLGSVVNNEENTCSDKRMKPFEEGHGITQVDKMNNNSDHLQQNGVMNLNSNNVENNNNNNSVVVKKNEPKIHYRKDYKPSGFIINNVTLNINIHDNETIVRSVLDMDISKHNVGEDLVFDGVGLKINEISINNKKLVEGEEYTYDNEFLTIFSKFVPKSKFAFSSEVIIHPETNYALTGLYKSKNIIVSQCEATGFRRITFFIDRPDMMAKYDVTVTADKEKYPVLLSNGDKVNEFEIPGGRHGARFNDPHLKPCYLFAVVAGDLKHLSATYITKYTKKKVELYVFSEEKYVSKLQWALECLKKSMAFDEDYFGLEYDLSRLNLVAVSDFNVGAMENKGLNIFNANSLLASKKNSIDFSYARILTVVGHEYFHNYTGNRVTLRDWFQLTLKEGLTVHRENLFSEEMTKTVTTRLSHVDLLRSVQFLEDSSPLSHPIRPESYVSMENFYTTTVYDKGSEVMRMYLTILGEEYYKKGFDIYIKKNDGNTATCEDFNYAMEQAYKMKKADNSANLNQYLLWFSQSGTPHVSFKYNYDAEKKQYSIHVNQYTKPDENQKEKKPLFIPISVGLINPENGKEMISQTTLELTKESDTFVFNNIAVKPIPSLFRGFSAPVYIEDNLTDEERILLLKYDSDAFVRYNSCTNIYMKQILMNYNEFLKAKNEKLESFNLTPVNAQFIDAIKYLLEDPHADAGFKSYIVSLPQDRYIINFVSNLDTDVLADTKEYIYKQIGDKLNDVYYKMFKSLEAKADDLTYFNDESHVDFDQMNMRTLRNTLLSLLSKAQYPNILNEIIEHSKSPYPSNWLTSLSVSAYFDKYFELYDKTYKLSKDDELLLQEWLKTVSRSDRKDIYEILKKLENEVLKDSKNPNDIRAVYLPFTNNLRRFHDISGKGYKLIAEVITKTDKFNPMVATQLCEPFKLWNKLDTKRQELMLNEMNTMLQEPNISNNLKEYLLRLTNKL

[1] = target: T2, Corticotropin-releasing factor receptor 2/Corticotropin-releasing factor-binding protein (Homo sapiens, UniProt P24387+Q13324); experiment: activators of CRF receptor 2 with binding protein – uHTS hits, confirmation (AID 602473); assay type: functional; details: read-out: EC50_Mean
T2 sequence (Q13324 whole entry): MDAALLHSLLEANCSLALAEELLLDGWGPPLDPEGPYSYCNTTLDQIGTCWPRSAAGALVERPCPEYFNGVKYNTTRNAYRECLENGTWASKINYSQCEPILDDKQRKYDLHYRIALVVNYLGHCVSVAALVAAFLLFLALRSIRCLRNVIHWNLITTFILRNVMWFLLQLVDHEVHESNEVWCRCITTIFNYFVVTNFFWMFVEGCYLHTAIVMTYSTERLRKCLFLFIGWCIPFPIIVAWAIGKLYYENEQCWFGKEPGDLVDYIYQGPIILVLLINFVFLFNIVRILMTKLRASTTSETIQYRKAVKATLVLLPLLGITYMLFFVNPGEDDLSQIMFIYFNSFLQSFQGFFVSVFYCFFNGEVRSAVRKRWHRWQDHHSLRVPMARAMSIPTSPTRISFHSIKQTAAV
T2 sequence (P24387 whole entry): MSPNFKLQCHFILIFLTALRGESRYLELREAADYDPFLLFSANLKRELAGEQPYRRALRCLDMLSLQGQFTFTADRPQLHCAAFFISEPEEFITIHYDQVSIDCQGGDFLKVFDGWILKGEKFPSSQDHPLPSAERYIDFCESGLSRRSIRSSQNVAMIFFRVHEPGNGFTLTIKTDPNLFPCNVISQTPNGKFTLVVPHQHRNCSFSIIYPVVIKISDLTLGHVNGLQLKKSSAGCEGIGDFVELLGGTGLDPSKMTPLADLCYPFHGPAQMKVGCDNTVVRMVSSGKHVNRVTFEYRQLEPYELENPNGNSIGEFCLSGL

[2] = cytotoxicity toward DRD oncogenic fibroblasts, dose response, cell-based, non-viral oncogenic, luminescence (AID 1934); assay type: functional; details: Homo sapiens
Streptococcus = experiment: Group A Streptococcus viability loss, dose response, counter-screen for streptokinase expression inhibitor project, luminescence, BacTiterGlo (AID 1915); assay type: functional, organism-based;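 note: potency for reduction of bacterial viability or growth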
[3] = tested on: Streptococcus sp. 'group A'; experiment: growth inhibition of control SK(-) GAS strain, dose response, counter-screen for streptokinase expression inhibitor project, luminescence, kanamycin, BacTiterGlo, confirmation (AID 1900); assay type: functional, organism-based
BJ [4] = experiment: cytotoxicity toward BJ-TERT fibroblasts, dose response, cell-based, RAS-independent, luminescence (AID 1933); assay type: functional; details: Homo sapiens
BJ [5] = experiment: cells; assay type: functional, cell-based; details: Homo sapiens
BJ [6] = experiment: cytotoxicity toward BJ-TERT-LT-ST fibroblasts, dose response, cell-based, RAS-independent, luminescence (AID 1935); assay type: functional; details: Homo sapiens;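 note: BJ fibroblasts immortalized with TERT plus LT and ST oncogenes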
[7] = target: T3, Zinc finger protein mex-5 (Caenorhabditis elegans, UniProt Q9XUB2); experiment: MEX-5/TCR-2 RNA interaction inhibitors, dose response, biochemical, C. elegans, fluorescence polarization (AID 1960)
T3 sequence (Q9XUB2 whole entry): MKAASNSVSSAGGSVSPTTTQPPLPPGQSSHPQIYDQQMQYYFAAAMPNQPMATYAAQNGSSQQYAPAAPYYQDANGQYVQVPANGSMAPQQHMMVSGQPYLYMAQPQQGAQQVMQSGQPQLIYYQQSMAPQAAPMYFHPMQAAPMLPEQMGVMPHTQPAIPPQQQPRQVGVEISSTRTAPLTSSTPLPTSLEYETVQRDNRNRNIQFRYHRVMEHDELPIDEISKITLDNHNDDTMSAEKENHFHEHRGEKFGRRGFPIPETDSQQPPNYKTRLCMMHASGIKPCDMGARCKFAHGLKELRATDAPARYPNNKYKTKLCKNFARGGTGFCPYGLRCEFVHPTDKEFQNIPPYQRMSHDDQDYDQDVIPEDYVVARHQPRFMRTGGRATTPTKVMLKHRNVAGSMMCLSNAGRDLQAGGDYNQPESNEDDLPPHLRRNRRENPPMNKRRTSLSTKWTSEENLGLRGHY

[8] = target: T4, RNA-binding protein pos-1 (Caenorhabditis elegans, UniProt G5EF15); experiment: inhibitors of POS-1/mex-3 RNA binding, dose response, biochemical, fluorescence polarization (AID 1964);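 note: purified POS-1 fused to maltose binding protein made in E. coli; potency of compounds blocking POS-1 binding to fluorescent RNA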
T4 sequence (G5EF15 whole entry): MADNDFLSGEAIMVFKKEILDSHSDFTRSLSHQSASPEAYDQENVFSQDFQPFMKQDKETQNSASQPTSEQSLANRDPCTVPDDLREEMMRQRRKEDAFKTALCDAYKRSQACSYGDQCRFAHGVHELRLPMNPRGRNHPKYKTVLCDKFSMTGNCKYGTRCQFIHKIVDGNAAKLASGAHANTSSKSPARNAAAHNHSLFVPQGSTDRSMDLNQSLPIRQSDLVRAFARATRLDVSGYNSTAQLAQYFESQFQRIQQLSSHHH

[9] = target: T5, Replicative DNA helicase DnaB (Mycobacterium tuberculosis, UniProt P9WMR3); experiment: DnaB intein splicing inhibitors, dose response, biochemical, cell-free fluorescence (AID 449749); assay type: functional
T5 sequence (P9WMR3 whole entry): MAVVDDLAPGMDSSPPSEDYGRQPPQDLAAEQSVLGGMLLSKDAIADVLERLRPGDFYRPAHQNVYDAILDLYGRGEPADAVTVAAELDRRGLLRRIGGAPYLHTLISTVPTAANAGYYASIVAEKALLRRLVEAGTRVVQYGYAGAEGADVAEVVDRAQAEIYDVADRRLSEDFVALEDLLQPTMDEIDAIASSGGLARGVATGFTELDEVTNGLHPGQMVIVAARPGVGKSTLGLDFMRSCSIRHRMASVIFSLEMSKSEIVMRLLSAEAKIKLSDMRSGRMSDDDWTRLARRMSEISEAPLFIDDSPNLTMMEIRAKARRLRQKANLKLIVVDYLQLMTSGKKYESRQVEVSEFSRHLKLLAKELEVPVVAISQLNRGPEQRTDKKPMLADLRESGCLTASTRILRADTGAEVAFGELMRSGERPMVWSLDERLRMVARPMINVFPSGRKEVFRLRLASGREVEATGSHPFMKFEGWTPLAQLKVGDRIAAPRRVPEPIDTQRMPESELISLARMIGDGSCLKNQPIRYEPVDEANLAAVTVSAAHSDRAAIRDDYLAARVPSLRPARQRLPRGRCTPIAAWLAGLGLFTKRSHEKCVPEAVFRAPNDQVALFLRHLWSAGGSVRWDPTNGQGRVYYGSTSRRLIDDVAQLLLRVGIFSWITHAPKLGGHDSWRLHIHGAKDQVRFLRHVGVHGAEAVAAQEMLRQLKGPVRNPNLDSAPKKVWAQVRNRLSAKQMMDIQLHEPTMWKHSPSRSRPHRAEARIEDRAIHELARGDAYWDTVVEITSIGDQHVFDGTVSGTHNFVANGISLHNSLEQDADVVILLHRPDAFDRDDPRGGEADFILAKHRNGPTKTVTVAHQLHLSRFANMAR

cells [10] = assay type: functional, cell-based
cells [11] = assay type: functional, cell-based; remark: listed apart in the source
Protein RecA = target: T6, Protein RecA (Mycobacterium tuberculosis, UniProt P9WHJ3); experiment: Fluorescence Cell-Free Homogeneous Dose Retest to Identify Inhibitors of RecA-Intein Splicing Activity. [Related pubchem assays (depositor defined):AID2097, AID2223, AID489010, AID492950]; assay type: functional
T6 sequence (P9WHJ3 whole entry): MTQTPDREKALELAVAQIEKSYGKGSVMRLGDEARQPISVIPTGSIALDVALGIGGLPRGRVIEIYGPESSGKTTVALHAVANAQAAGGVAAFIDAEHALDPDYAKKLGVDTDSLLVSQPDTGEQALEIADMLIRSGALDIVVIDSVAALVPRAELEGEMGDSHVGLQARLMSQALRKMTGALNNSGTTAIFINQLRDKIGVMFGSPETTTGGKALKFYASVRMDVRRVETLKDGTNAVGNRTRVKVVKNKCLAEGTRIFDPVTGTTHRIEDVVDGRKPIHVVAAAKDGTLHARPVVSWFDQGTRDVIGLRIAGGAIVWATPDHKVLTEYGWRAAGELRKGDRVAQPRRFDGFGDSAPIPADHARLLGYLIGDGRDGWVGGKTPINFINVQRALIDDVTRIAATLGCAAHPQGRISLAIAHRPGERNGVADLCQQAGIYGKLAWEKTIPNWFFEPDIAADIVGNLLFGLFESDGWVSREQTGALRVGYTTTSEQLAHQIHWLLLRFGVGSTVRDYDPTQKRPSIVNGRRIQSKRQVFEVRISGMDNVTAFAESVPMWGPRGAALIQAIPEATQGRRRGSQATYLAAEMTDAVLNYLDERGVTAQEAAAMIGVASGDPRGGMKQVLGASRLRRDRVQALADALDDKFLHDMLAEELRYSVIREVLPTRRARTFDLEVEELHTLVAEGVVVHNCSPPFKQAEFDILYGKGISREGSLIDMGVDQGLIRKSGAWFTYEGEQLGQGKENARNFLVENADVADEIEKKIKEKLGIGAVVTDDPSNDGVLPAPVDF

Cytochrome P450 2C19 = Cytochrome P450 2C19 (Homo sapiens, UniProt P33261); experiment: Cytochrome panel assay with activity outcomes. Panel member name: p450-cyp2c19 Compounds with AC50 equal or less than 10 uM are considered active; assay type: functional; details: read-out: AC50
Cytochrome P450 2C19, sequence (P33261 whole entry): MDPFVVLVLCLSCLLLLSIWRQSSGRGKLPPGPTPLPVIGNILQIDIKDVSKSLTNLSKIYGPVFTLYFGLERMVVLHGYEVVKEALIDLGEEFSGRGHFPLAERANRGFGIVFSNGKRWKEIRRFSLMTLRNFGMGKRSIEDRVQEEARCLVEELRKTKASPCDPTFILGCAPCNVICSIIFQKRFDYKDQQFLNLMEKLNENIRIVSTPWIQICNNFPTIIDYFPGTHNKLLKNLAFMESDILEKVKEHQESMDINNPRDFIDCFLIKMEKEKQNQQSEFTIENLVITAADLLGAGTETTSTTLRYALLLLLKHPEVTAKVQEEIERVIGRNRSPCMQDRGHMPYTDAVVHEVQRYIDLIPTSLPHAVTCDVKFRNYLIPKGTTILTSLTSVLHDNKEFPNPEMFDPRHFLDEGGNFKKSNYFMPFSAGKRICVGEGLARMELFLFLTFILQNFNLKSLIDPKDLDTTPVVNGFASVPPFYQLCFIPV

Cytochrome P450 2C9 = Cytochrome P450 2C9 (Homo sapiens, UniProt P11712)
Cytochrome P450 2C9, sequence (P11712 whole entry): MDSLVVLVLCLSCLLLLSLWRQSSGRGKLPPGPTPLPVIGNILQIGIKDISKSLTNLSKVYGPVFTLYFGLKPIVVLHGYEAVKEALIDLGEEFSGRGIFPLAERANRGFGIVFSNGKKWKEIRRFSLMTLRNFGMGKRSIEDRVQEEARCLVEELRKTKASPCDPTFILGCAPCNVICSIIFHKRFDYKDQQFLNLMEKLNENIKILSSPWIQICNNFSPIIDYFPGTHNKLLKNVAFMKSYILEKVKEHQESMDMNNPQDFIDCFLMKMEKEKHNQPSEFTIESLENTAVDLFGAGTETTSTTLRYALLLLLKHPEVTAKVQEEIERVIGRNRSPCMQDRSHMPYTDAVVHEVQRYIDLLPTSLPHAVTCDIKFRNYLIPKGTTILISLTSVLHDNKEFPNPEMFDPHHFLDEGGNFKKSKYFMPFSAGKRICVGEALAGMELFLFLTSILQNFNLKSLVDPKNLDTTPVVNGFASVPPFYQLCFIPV

[12] = HEp-2 cell cytotoxicity, dose response, cytotoxicity control for RSV inhibitor project, HTS (AID 2410); assay type: functional; details: human respiratory syncytial virus

COc1cc(/C=C2\C(=N)N3C(=NC2=O)Sc2cc(S(C)(=O)=O)ccc23)ccc1O
IC50 (Aminopeptidase N): 45.7 µM (active) | EC50 [1]: 5.19 µM (active)

CCCOc1ccc(C(C)=O)cc1CSc1nc(O)cc(=O)[nH]1
IC50 (Aminopeptidase N): 109 µM (active)

O=C(COc1ccccc1/C=C1\SC(=O)NC1=O)Nc1ccccc1
IC50 (Aminopeptidase N): 32.6 µM (active)

Cc1ccc(-n2nc(C)c(/C=N/NC(=O)c3cccc([N+](=O)[O-])c3)c2O)cc1C
EC50 [2]: 10 µM (active) | EC50 (Streptococcus): 6.18 µM (active) | EC50 [3]: 2.02 µM (active) | EC50 (BJ [4]): 9.53 µM (active) | EC50 (BJ [5]): 37 µM (active) | EC50 (BJ [6]): 16 µM (active)

COc1ccc(/C=C/C(O)=C2\C(=O)NC(=O)N(CCC3=CCCCC3)C2=O)cc1OC
EC50 [7]: > 300 µM (inconclusive) | EC50 [8]: 6.09 µM (inconclusive)

Cc1ccc(C(=O)NC(=S)NNS(=O)(=O)c2ccc(C)cc2)cc1
AC50 [9]: 58.9 µM (active) | EC50 (cells [10]): > 350 µM (not active) | EC50 (cells [11]): > 350 µM (not active) | EC50 (Protein RecA): 146 µM (active)

Cc1cccc(S(=O)(=O)C(C#N)c2nc3ccccc3nc2N2CCOCC2)c1 (stereo not given)
EC50 [7]: > 300 µM (not active) | EC50 [8]: 163 µM (active)

Oc1cccc2cccnc12 [OXYQUINOLINE]
EC50 [2]: 17.9 µM (active) | EC50 (BJ [4]): > 150 µM (not active) | EC50 (BJ [5]): 125 µM (active) | EC50 (BJ [6]): > 150 µM (not active)

COc1ccc(OC)c(NC(=O)C2C3C=CC(C3)C2C(=O)NCc2cccnc2)c1 (stereo not given)
IC50 (Aminopeptidase N): 48.2 µM (active)

CN1C(=O)C(=Cc2ccc(N3CCCCC3)o2)C(=O)N(C)C1=S
EC50 [7]: > 300 µM (inconclusive) | EC50 [8]: > 300 µM (inconclusive) | AC50 (Cytochrome P450 2C19): 2.82 µM (inconclusive) | AC50 (Cytochrome P450 2C9): 11.2 µM (inconclusive)

CCOC(=O)N1CCN(c2nc3ccccc3nc2C(C#N)S(=O)(=O)c2ccc(C)cc2)CC1 (stereo not given)
EC50 [7]: 170 µM (inconclusive) | EC50 [8]: > 300 µM (inconclusive)

CCOC(=O)c1sc(Nc2cccc(Cl)c2)nc1C
EC50 (cells [10]): > 350 µM (not active) | EC50 (cells [11]): 19.5 µM (active) | CC50 [12]: > 50 µM (active)

CCOC(=O)C1=C(Nc2ccccc2)S/C(=C\c2ccc(OCC(=O)O)c(OCC)c2)C1=O
IC50 (Aminopeptidase N): 60.2 µM (active)

NS(=O)(=O)c1ccc(-c2cccc(/C=C3\SC(=O)NC3=O)c2)cc1
EC50 [7]: 16.6 µM (active) | EC50 [8]: 13 µM (active)

Source: ChEMBL document CHEMBL1201862, “PubChem BioAssay data set” (2004)
